From article PMC11161644, “An effective and rapidly degradable disinfectant from disinfection byproducts” (Nature Communications, 2024)
Values joined by “and” are separate entries in the source; they are usually repeats but may differ in a detail not shown here. Identical values can stand only once. Like-named read-outs stand apart in the source and are kept apart here.

Legend:
[1] = Degradation in seawater in darkness (pH 6.2, 7.2, 8.2)
Description: To study the DBP degradation in seawater in darkness, a DBP was added at 10 mg L^−1 to 50 mL pretreated seawater (pH 8.2) in the quartz flasks. The flasks were wrapped with aluminum foil to simulate the dark condition. The samples were kept at 20 °C in darkness for 0‒120 h, during which the sample was adjusted to pH 6.2 and 7.2 or maintained at pH 8.2 by adding 4 mM phosphate buffer (pH 6.2, 7.2, and 8.2, respectively).
(§1) For the DBP samples with and without sunlight, aliquots were taken at a specific reaction time. The sample aliquots were analyzed using Agilent high-performance liquid chromatography (HPLC) equipped with a Poroshell 120 EC-C18 column (4.6 × 150 mm, 4 µm particle size, Agilent) and a UV detector. The mobile phase, consisting of water (pre-adjusted to pH 2 with phosphoric acid) and acetonitrile at 50/50 (v/v), was applied at a flow rate of 1.0 mL min^−1. PCMX, 2,4-dihalophenols and 5-halosalicylic acids were detected at the wavelength of 230 nm. 2,5-Dihalohydroquinones and 2,6-DCQ were detected at the wavelength of 280 nm. All the degradation experiments were conducted in duplicate.

P. dumerilii embryos = assay: Developmental toxicity assay with P. dumerilii embryos, dilution factor of in-use concentration (EC50,DF), also after degradation in darkness; type: in vivo, Platynereis dumerilii; details: for Normal development: PCMX
Source text: The DBP doses for 3-log E. coli reduction (pH 7.2) were set as the in-use concentrations, which were serially diluted and added to the P. dumerilii embryos at 12-h postfertilization. A dilution factor was defined as the ratio of the in-use concentration to the exposure concentration. Each exposure set contained a control sample (i.e., the embryos at 12-h postfertilization developed in seawater without the addition of DBPs). By 24-h postfertilization, normally developed embryos should have reached the first larval stage. An inverted stereomicroscope (×40 magnification) was used to observe the larvae. The normal development percentage was calculated as the ratio of normally developed embryos to total embryos. By plotting the curve of the normal development percentage versus the dilution factor, the EC50,DF value (i.e., the dilution factor corresponding to 50% of the normal development percentage of the control sample) was obtained using SigmaPlot 12. The developmental toxicity test was conducted in duplicate.

E. coli (ATCC 25922) = assay: Inactivation of E. coli by disinfectants (membrane filter enumeration, contact time 5 min); type: cell-based, Escherichia coli; details: for log reduction at 200 µg/mL: dose 200 mg L-1, 5 min, read-out: Log (N/N0)
Outline: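 E. coli ATCC 25922 (10^6‒10^7 cells/mL) exposed to a series of DBP doses in 10 mM PBS (pH 7.2; pH effect tested at 6.2, 7.2, 8.2) for 5 min at 22 ± 1 °C. Survivors enumerated by membrane filtration on m-FC medium at 45 °C for 24 h; inactivation relative to undisinfected control.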

[2] = Degradation in seawater with simulated solar irradiation
Description: The solar photolysis experiments were conducted in a chamber equipped with eight simulated sunlight full-spectrum lamps (BlueMax 5900, Full Spectrum Solutions). The temperature in the chamber was maintained at 20 °C. The total intensity of simulated sunlight was determined using a digital photometer (DT-1010B, Shenzhen Golden Octopus, China). Quartz flasks were positioned in the chamber where the total intensity of simulated sunlight was 4.79 ± 0.04 mW cm^−2 for each quartz flask. […] A DBP was added at 10 mg L^−1 to 50 mL pretreated seawater (pH 8.2) in the quartz flasks and exposed to the simulated solar irradiation for 0‒96 h. Every 8 h, the quartz flasks were rotated in and out of the chamber, and the sample volume was determined and adjusted with ultrapure water to account for any water evaporation. During the solar irradiation experiments, the sample was adjusted to pH 6.2 and 7.2 or maintained at pH 8.2 by adding 4 mM phosphate buffer (pH 6.2, 7.2, and 8.2, respectively).
as §1

## Cc1cc(O)cc(C)c1Cl [PCMX, para-chloro-meta-xylenol, reference compound]
[1]; pretreated seawater in darkness
  half-life at 10 mg L−1: ~240 days
[1]; seawater pH 8.2, darkness, 0 h
  Ln (C/C0): 0
[1]; seawater, absence of sunlight
  Degradation in 120 h: less than 5%
P. dumerilii embryos; degradation 0 h, dilution factor 6.7143
  Normal development: 0%
P. dumerilii embryos; degradation 0 h, dilution factor 7.2308
  Normal development: 4.232% and 2.756%
P. dumerilii embryos; degradation 0 h, dilution factor 7.6735
  Normal development: 25.4292% and 17.7492%
P. dumerilii embryos; degradation 0 h, dilution factor 8.1739
  Normal development: 29.4152% and 29.5272%
P. dumerilii embryos; degradation 0 h, dilution factor 8.7442
  Normal development: 46.2529% and 46.0367%
P. dumerilii embryos; degradation 0 h, dilution factor 9.4
  Normal development: 56.894% and 62.197%
P. dumerilii embryos; degradation 0 h, dilution factor 10.4444
  Normal development: 76.1488% and 70.708%
P. dumerilii embryos; degradation 0 h, dilution factor 11.75
  Normal development: 84.2318% and 84.1758%
P. dumerilii embryos; degradation 48 h, dilution factor 6.7143
  Normal development: 0%
P. dumerilii embryos; degradation 48 h, dilution factor 7.2308
  Normal development: 0%
P. dumerilii embryos; degradation 48 h, dilution factor 7.6735
  Normal development: 5.72% and 1.379%
P. dumerilii embryos; degradation 48 h, dilution factor 8.1739
  Normal development: 20.3803% and 14.4749%
P. dumerilii embryos; degradation 48 h, dilution factor 8.7442
  Normal development: 43.6056% and 44.3682%
P. dumerilii embryos; degradation 48 h, dilution factor 9.4
  Normal development: 43.7739% and 49.5131%
P. dumerilii embryos; degradation 48 h, dilution factor 10.4444
  Normal development: 54.207% and 47.1234%
P. dumerilii embryos; degradation 48 h, dilution factor 11.75
  Normal development: 73.3565% and 68.3577%
P. dumerilii embryos; dilution factor 6.7143 of in-use concentration
  Normal development (%): 0%
P. dumerilii embryos; dilution factor 7.2308
  Normal development (%): 4.232% and 2.756%
P. dumerilii embryos; dilution factor 7.6735
  Normal development (%): 25.4292% and 17.7492%
P. dumerilii embryos; dilution factor 8.1739
  Normal development (%): 29.4152% and 29.5272%
P. dumerilii embryos; dilution factor 8.7442
  Normal development (%): 46.0367% and 46.2529%
P. dumerilii embryos; dilution factor 9.4
  Normal development (%): 62.197% and 56.894%
P. dumerilii embryos; dilution factor 10.4444
  Normal development (%): 76.1488% and 70.708%
P. dumerilii embryos; dilution factor 11.75
  Normal development (%): 84.2038%
E. coli (ATCC 25922); Escherichia coli, ATCC25922, 5 min, pH 6.2, E. coli, pH 6.2
  log reduction at 200 µg/mL: 4.19
E. coli (ATCC 25922); Escherichia coli, ATCC25922, 5 min, pH 7.2, E. coli, pH 7.2
  log reduction at 200 µg/mL: 3.54
E. coli (ATCC 25922); Escherichia coli, ATCC25922, 5 min, pH 8.2, E. coli, pH 8.2
  log reduction at 200 µg/mL: 5.56
E. coli (ATCC 25922); Escherichia coli, ATCC25922, 5 min, pH 7.2, contact time 5 min, read-out: Dose for achieving 3-log inactivation of E. coli
  EC (3-log inactivation): 188 µg/mL
E. coli (ATCC 25922); pH 7.2, contact time 5 min
  E. coli inactivation rate constant k: 0.66 L mg‒1 h‒1
[2]; pretreated seawater under simulated solar irradiation, pH 8.2
  half-life at 10 mg L−1: 10.7 days
[2]; seawater pH 8.2, solar irradiation, 0 h
  Ln (C/C0): 0
